Data from PubChem BioAssay AID2060602 (Molecular Pharmacology Branch, DTP, NCI, 2025).

Tested on: 648629-189-R-J1-PDC complex spheroids viability
Experiment: Anticancer human tumor 648629-189-R-J1-PDC patient-derived bladder carcinoma cell line growth inhibition [CLK]
Conditions: for IC50: curve of first compound; for viability, T/C: stronger effect = lower value
How it was run: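 Patient-derived tumor cells grown as complex spheroids with HUVEC endothelial cells and mesenchymal stem cells, treated with drug combinations. Concentrations descend in half-log steps from near clinical Cmax, or from 10 microM if Cmax unknown.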
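Throughout, for viability, T/C: drug exposure lasted seven days before viability readout; 100% = DMSO vehicle control wells.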

## NC(=O)C(=Cn1cnc(-c2cc(C(F)(F)F)cc(C(F)(F)F)c2)n1)c1cncnc1 + CNC(=O)c1ccc(Nc2nc(OC3CCCC3)c3c(-c4ccc5nc(C)oc5c4)c[nH]c3n2)c(OC)c1
Second compound 0.0316 µM
  IC50: 52.2 nM
Second compound 0.1 µM
  IC50: 44.5 nM
Second compound 0.316 µM
  IC50: < 9.49 nM
Second compound 1 µM
  IC50: < 9.49 nM
Second compound 3.16 µM
  IC50: < 9.49 nM
Second compound 10 µM
  IC50: < 9.49 nM
Second compound 0.0316 µM, first compound 0.00949 µM
  viability, T/C: 99%
Second compound 0.0316 µM, first compound 0.03 µM
  viability, T/C: 83.4%
Second compound 0.0316 µM, first compound 0.0949 µM
  viability, T/C: 13.9%
Second compound 0.0316 µM, first compound 0.3 µM
  viability, T/C: 5.54%
Second compound 0.0316 µM, first compound 0.949 µM
  viability, T/C: 2.71%
Second compound 0.0316 µM, first compound 3 µM
  viability, T/C: 2.7%
Second compound 0.1 µM, first compound 0.00949 µM
  viability, T/C: 94.1%
Second compound 0.1 µM, first compound 0.03 µM
  viability, T/C: 68.2%
Second compound 0.1 µM, first compound 0.0949 µM
  viability, T/C: 14.8%
Second compound 0.1 µM, first compound 0.3 µM
  viability, T/C: 4.73%
Second compound 0.1 µM, first compound 0.949 µM
  viability, T/C: 2.15%
Second compound 0.1 µM, first compound 3 µM
  viability, T/C: 2.48%
Second compound 0.316 µM, first compound 0.00949 µM
  viability, T/C: 22.4%
Second compound 0.316 µM, first compound 0.03 µM
  viability, T/C: 17.4%
Second compound 0.316 µM, first compound 0.0949 µM
  viability, T/C: 7.71%
Second compound 0.316 µM, first compound 0.3 µM
  viability, T/C: 2.5%
Second compound 0.316 µM, first compound 0.949 µM
  viability, T/C: 1.35%
Second compound 0.316 µM, first compound 3 µM
  viability, T/C: 2.05%
Second compound 1 µM, first compound 0.00949 µM
  viability, T/C: 18.1%
Second compound 1 µM, first compound 0.03 µM
  viability, T/C: 11.5%
Second compound 1 µM, first compound 0.0949 µM
  viability, T/C: 4.85%
Second compound 1 µM, first compound 0.3 µM
  viability, T/C: 1.29%
Second compound 1 µM, first compound 0.949 µM
  viability, T/C: 0.91%
Second compound 1 µM, first compound 3 µM
  viability, T/C: 0.42%
Second compound 3.16 µM, first compound 0.00949 µM
  viability, T/C: 14.7%
Second compound 3.16 µM, first compound 0.03 µM
  viability, T/C: 11.7%
Second compound 3.16 µM, first compound 0.0949 µM
  viability, T/C: 5.56%
Second compound 3.16 µM, first compound 0.3 µM
  viability, T/C: 1.15%
Second compound 3.16 µM, first compound 0.949 µM
  viability, T/C: 1.87%
Second compound 3.16 µM, first compound 3 µM
  viability, T/C: 1.75%
Second compound 10 µM, first compound 0.00949 µM
  viability, T/C: 15.4%
Second compound 10 µM, first compound 0.03 µM
  viability, T/C: 8.85%
Second compound 10 µM, first compound 0.0949 µM
  viability, T/C: 5.59%
Second compound 10 µM, first compound 0.3 µM
  viability, T/C: 1.56%
Second compound 10 µM, first compound 0.949 µM
  viability, T/C: 1.79%
Second compound 10 µM, first compound 3 µM
  viability, T/C: 0.33%

## Nc1ccccc1NC(=O)c1ccc(CNC(=O)OCc2cccnc2)cc1 + CNC(=O)c1ccc(Nc2nc(OC3CCCC3)c3c(-c4ccc5nc(C)oc5c4)c[nH]c3n2)c(OC)c1
Second compound 0.0316 µM
  IC50: 1590 nM
Second compound 0.1 µM
  IC50: 1560 nM
Second compound 0.316 µM
  IC50: < 31.6 nM
Second compound 1 µM
  IC50: < 31.6 nM
Second compound 3.16 µM
  IC50: < 31.6 nM
Second compound 10 µM
  IC50: < 31.6 nM
Second compound 0.0316 µM, first compound 0.0316 µM
  viability, T/C: 104%
Second compound 0.0316 µM, first compound 0.1 µM
  viability, T/C: 93.5%
Second compound 0.0316 µM, first compound 0.316 µM
  viability, T/C: 96.7%
Second compound 0.0316 µM, first compound 1 µM
  viability, T/C: 63.9%
Second compound 0.0316 µM, first compound 3.16 µM
  viability, T/C: 27.1%
Second compound 0.0316 µM, first compound 10 µM
  viability, T/C: 0.72%
Second compound 0.1 µM, first compound 0.0316 µM
  viability, T/C: 86.6%
Second compound 0.1 µM, first compound 0.1 µM
  viability, T/C: 90.8%
Second compound 0.1 µM, first compound 0.316 µM
  viability, T/C: 82.4%
Second compound 0.1 µM, first compound 1 µM
  viability, T/C: 65.1%
Second compound 0.1 µM, first compound 3.16 µM
  viability, T/C: 26.2%
Second compound 0.1 µM, first compound 10 µM
  viability, T/C: 0.23%
Second compound 0.316 µM, first compound 0.0316 µM
  viability, T/C: 30.3%
Second compound 0.316 µM, first compound 0.1 µM
  viability, T/C: 22.9%
Second compound 0.316 µM, first compound 0.316 µM
  viability, T/C: 27.1%
Second compound 0.316 µM, first compound 1 µM
  viability, T/C: 27.5%
Second compound 0.316 µM, first compound 3.16 µM
  viability, T/C: 17.8%
Second compound 0.316 µM, first compound 10 µM
  viability, T/C: 0.7%
Second compound 1 µM, first compound 0.0316 µM
  viability, T/C: 17.4%
Second compound 1 µM, first compound 0.1 µM
  viability, T/C: 19.8%
Second compound 1 µM, first compound 0.316 µM
  viability, T/C: 20.5%
Second compound 1 µM, first compound 1 µM
  viability, T/C: 18.4%
Second compound 1 µM, first compound 3.16 µM
  viability, T/C: 12.6%
Second compound 1 µM, first compound 10 µM
  viability, T/C: 0.5%
Second compound 3.16 µM, first compound 0.0316 µM
  viability, T/C: 18.9%
Second compound 3.16 µM, first compound 0.1 µM
  viability, T/C: 18.3%
Second compound 3.16 µM, first compound 0.316 µM
  viability, T/C: 19.3%
Second compound 3.16 µM, first compound 1 µM
  viability, T/C: 18.5%
Second compound 3.16 µM, first compound 3.16 µM
  viability, T/C: 16.4%
Second compound 3.16 µM, first compound 10 µM
  viability, T/C: 0.52%
Second compound 10 µM, first compound 0.0316 µM
  viability, T/C: 21.7%
Second compound 10 µM, first compound 0.1 µM
  viability, T/C: 16.4%
Second compound 10 µM, first compound 0.316 µM
  viability, T/C: 19.5%
Second compound 10 µM, first compound 1 µM
  viability, T/C: 23.9%
Second compound 10 µM, first compound 3.16 µM
  viability, T/C: 15.6%
Second compound 10 µM, first compound 10 µM
  viability, T/C: 1.56%
